Experimental data reported in patent US20260274886A1, “CRYSTALLINE FORMS OF A FARNESOID X RECEPTOR AGONIST” (ALFASIGMA S.P.A., priority 2023, published 2026).
Like-named read-outs stand apart in the source and are kept apart here.

Tests used:
[1] = Dynamic vapour sorption (DVS) analysis; format: physicochemical
Protocol: Approximately 10-20 mg of sample is placed into a mesh vapour sorption balance pan and loaded into a DVS Advantage dynamic vapour sorption balance by Surface Measurement Systems. The sample is subjected to a ramping profile from 40-90% relative humidity (RH) at 10% increments, maintaining the sample at each step until a stable weight has been achieved (dm/dt 0.004%, minimum step length 30 minutes, maximum step length 500 minutes) at 25° C. After completion of the sorption cycle, the sample is dried using the same procedure to 0% RH and then a second sorption cycle back to 40% RH. Two cycles are performed. The weight change during the sorption/desorption cycles are plotted, allowing for the hygroscopic nature of the sample to be determined. XRPD analysis is then carried out on any solid retained.
A dynamic vapour sorption analysis of Crystalline Form 1 is in FIG. 4. […] There is a loss of 1.9 wt. % on the first desorption cycle. There is an uptake of 1.1 wt. % (0.3 equivalents water) on the second sorption between 0 and 90% RH, followed by a loss of about 1.25 wt. % on desportion. There is a loss of 1.2 wt. % difference from the input to the end of the experiment. […] Crystalline Form 1 remains as the bulk form.

[2] = Form change on drying under vacuum (XRPD wet vs dry, thermal cycling experiments); format: physicochemical; settings: dried at ambient temperature under vacuum for 2 h
Protocol: Additional solvent is added if necessary. Mixture is thermally cycled between 4° and 5° C. with 0.1° C./min cooling and heating rates and 1 h holds at 40 and 5° C. After 21 h cycling, additional solvent is added if thick slurry is observed and anti-solvent (heptane) is added if clear solution is observed. After a further 26 h thermal cycling, observations are recorded at 5° C. Material is isolated by centrifugation if necessary and analyzed by XRPD. […] XRPD analysis is repeated.

[3] = DVS, 25° C., between 0 and 90% RH

Row | SMILES | uptake on the second sorption [1, 3] | uptake on the second sorption, equivalents water [1, 3] | loss on the first desorption cycle ([1]; DVS, 25° C., first desorption cycle) | mass change on the first sorption cycle ([1]; DVS, 25° C., first sorption cycle) | loss on desorption after second sorption ([1]; DVS, 25° C., second desorption) | loss, difference from the input to the end of the experiment ([1]; DVS, 25° C., two cycles) | XRPD post-DVS ([1]; solid retained after DVS) | HPLC-CAD Purity (% w/w) (7 day stability, 40° C./75% RH) | HPLC-CAD Purity (% w/w) (7 day stability, 80° C.) | HPLC-CAD Purity (% w/w) (7 day stability, Ambient Light) | XRPD (7 day stability, Ambient Light) | stability under stressed conditions (summary statement referring to DVS and storage data in Example 6) | form after drying [2]
1 | CC[C@H]1[C@@H](O)[C@@H]2[C@H]([C@@H](O)C[C@]3(C)[C@@H]([C@H](C)CCC(=O)O)CC[C@@H]23)[C@@]2(C)CC[C@@H](O)C[C@@H]12 [Crystalline Form 1, 3α,7α,11β-trihydroxy-6α-ethyl-5β-cholan-24-oic acid] | 1.1 wt. % | 0.3 equivalents water | 1.9 wt. % | initial mass loss on the first sorption cycle before a slight uptake is observed | about 1.25 wt. % | 1.2 wt. % | slight loss of crystallinity | 97.1 % w/w | 96.4 % w/w | 97.5 % w/w | 1^ | stable under stressed conditions | 
2 | CC[C@H]1[C@@H](O)[C@@H]2[C@H]([C@@H](O)C[C@]3(C)[C@@H]([C@H](C)CCC(=O)O)CC[C@@H]23)[C@@]2(C)CC[C@@H](O)C[C@@H]12 [Crystalline Form 2, 3α,7α,11β-trihydroxy-6α-ethyl-5β-cholan-24-oic acid] |  |  |  |  |  |  |  |  |  |  |  |  | converts to Form 3
